A short description of series [1]: Half life in rat liver microsomes. The class given is ADME, Microsome. A general note: Microsomes from liver hold many membrane-bound enzymes, among them those of drug oxidation.
The nature of series [2]: Half life in human liver microsomes. The class given is ADME, Microsome.
The target in series [3] is T1, Nuclear receptor subfamily 1 group I member 2 (Homo sapiens, UniProt O75469).
T1 sequence (O75469 whole entry): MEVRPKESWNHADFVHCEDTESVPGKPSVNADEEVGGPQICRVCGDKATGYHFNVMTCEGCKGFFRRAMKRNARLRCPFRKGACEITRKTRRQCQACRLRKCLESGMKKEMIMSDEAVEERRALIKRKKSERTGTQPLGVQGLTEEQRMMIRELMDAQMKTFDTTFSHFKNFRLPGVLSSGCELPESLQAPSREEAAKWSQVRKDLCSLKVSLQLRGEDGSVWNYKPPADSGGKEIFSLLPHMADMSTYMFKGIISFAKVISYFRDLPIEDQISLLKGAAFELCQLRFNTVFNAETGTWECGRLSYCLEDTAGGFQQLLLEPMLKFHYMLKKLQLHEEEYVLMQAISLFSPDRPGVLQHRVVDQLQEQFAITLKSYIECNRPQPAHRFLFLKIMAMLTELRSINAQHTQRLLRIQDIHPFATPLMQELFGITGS
The experiment in a line: Activity at PXR (unknown origin).

Series [4] deals with T2, Nuclear receptor ROR-alpha (Homo sapiens, UniProt P35398).
T2 sequence (P35398 whole entry): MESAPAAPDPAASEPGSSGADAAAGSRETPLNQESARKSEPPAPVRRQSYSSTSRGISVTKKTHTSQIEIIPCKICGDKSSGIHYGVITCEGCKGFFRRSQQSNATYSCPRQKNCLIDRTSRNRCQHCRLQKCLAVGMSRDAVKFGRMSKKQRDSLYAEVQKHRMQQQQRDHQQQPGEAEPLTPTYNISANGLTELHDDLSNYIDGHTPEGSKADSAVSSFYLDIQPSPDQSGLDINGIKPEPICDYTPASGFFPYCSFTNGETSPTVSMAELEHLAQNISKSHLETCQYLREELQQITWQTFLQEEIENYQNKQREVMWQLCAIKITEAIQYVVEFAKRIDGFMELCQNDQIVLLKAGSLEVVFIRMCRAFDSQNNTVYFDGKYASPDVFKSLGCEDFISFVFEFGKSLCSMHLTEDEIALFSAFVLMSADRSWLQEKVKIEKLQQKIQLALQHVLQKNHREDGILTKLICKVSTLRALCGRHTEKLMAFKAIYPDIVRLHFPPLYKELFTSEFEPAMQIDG
The experiment in a line: Activity at RORalpha (unknown origin).

Series [5] deals with T3, Oxysterols receptor LXR-alpha (Homo sapiens, UniProt Q13133).
T3 sequence (Q13133 whole entry): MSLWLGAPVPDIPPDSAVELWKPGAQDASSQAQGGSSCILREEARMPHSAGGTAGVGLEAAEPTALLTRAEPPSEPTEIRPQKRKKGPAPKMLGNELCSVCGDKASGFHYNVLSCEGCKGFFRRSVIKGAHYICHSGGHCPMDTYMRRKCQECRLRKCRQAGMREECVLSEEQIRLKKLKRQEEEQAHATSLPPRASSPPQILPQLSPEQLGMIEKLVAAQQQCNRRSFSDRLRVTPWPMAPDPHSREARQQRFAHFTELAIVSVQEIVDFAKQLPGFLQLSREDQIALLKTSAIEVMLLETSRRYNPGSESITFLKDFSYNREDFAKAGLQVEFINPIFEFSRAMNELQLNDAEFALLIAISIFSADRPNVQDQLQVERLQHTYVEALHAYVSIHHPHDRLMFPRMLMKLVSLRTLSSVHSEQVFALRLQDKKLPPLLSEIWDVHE
The experiment in a line: Activity at LXRalpha (unknown origin).

The nature of series [6]: Half life in mouse liver microsomes. Type of series: ADME, Microsome.
Series [7] concerns the target T4, Nuclear receptor ROR-beta (Homo sapiens, UniProt Q92753).
T4 sequence (Q92753 whole entry): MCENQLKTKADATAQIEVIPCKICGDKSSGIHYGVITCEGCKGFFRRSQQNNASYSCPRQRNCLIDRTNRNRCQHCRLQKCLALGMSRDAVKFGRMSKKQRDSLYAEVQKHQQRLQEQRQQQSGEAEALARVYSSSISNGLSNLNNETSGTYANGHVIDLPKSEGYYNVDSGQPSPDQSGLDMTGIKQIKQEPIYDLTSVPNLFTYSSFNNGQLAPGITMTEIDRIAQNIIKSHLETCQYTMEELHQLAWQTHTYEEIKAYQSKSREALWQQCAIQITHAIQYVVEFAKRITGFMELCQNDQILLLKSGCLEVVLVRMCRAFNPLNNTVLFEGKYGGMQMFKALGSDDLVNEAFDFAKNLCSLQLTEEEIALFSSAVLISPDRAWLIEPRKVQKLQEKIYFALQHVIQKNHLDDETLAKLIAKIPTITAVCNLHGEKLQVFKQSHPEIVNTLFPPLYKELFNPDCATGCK
The experiment in a line: Activity at RORbeta (unknown origin).

Series [8] has as its target T5, Oxysterols receptor LXR-beta (Homo sapiens, UniProt P55055).
T5 sequence (P55055 whole entry): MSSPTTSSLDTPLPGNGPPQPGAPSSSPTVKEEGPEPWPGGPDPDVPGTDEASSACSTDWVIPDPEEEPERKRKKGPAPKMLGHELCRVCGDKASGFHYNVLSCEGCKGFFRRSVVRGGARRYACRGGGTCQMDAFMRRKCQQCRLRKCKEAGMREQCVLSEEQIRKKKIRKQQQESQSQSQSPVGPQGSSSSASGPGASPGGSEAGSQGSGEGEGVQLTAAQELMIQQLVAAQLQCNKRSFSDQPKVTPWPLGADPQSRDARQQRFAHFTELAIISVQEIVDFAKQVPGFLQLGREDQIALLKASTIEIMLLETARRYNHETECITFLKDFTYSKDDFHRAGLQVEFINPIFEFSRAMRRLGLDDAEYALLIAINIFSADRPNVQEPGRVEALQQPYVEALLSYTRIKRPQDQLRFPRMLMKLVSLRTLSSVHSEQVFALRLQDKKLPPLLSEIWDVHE
The experiment in a line: Activity at LXRbeta (unknown origin).

Series [9] in a line: Unbound fraction in human serum. Type of series: ADME, cell-free.

Regarding `O=C(O)[C@H]1CC[C@H](C(=O)N2CC[C@@]3(S(=O)(=O)c4cccc(Cl)c4)c4ccc(C(F)(C(F)(F)F)C(F)(F)F)cc4CC[C@@H]23)CC1`, the half-life in series [1], in [2] and in series [6] was greater than 120 min throughout. In addition, the half-inhibitory concentration (IC50) was greater than 40 µM in [3]; greater than 10 µM in series [4]; greater than 10 µM in series [5]; greater than 10 µM in series [7]; greater than 10 µM in series [8].
Turning to `Cc1ccc(S(=O)(=O)[C@@]23CCN(C(=O)[C@H]4CC[C@H](C(=O)O)CC4)[C@@H]2CCc2cc(C(F)(C(F)(F)F)C(F)(F)F)ccc23)cc1`, the half-life in [1] was 61 min; in [2] it was 82 min; in series [6] it was greater than 120 min. Further, the IC50 in [3] was greater than 40 µM; in series [4], greater than 10 µM; in series [5], greater than 10 µM; in [7] it was greater than 10 µM; in series [8] it was greater than 10 µM.
Turning to `O=C(N1CC[C@@]2(S(=O)(=O)c3ccc(F)cc3)c3ccc(C(F)(C(F)(F)F)C(F)(F)F)cc3NC[C@@H]12)C1(O)CCS(=O)(=O)CC1`, the free fraction (fraction unbound) in series [9] was 0.006. The IC50 in [3] is greater than 40 µM; in [4], greater than 10 µM; in [5], greater than 10 µM; in series [7] it was greater than 10 µM; in series [8], greater than 10 µM.
For `O=C(O)[C@H]1CC[C@H](C(=O)N2CC[C@@]3(S(=O)(=O)c4ccc(Cl)cc4)c4ccc(C(F)(C(F)(F)F)C(F)(F)F)cc4CC[C@@H]23)CC1`, the half-life in [1], in series [2] and in series [6] was greater than 120 min in each case. The half-inhibitory concentration (IC50) in [3] is greater than 40 µM; in series [4], greater than 10 µM; in series [5] it was greater than 10 µM; in series [7] it was greater than 10 µM; in [8] it was greater than 10 µM.
In the case of `Cc1cccc(S(=O)(=O)[C@@]23CCN(C(=O)[C@H]4CC[C@H](C(=O)O)CC4)[C@@H]2CCc2cc(C(F)(C(F)(F)F)C(F)(F)F)ccc23)c1`, the half-life in series [1] is 25 min; in series [2], greater than 120 min; in series [6] it was greater than 120 min. Besides, the 50% inhibitory concentration (IC50) was greater than 40 µM in series [3]; greater than 10 µM in [4]; greater than 10 µM in series [5]; greater than 10 µM in series [7]; greater than 10 µM in [8].
Consider `C[C@]1(C(=O)N2CC[C@@]3(S(=O)(=O)c4ccc(F)cc4)c4ccc(C(F)(C(F)(F)F)C(F)(F)F)cc4CC[C@@H]23)CC[C@H](C(=O)O)CC1`, for which the half-life in series [1] is 107 min; in [2], 109 min; in series [6] it was 84 min. The IC50 was greater than 40 µM in series [3]; greater than 10 µM in series [4]; greater than 10 µM in series [5]; greater than 10 µM in series [7]; greater than 10 µM in series [8].
Regarding `C[C@]1(C(=O)O)CC[C@H](C(=O)N2CC[C@@]3(S(=O)(=O)c4ccc(F)cc4)c4ccc(C(F)(C(F)(F)F)C(F)(F)F)cc4CC[C@@H]23)CC1`, the half-life in [1] is 104 min; in [2] it was greater than 120 min; in series [6] it was greater than 120 min. For the same compound, the IC50 in series [3] was greater than 40 µM; in series [4], greater than 10 µM; in series [5], greater than 10 µM; in [7], greater than 10 µM; in series [8], greater than 10 µM.
In the case of `O=C(O)[C@H]1CC[C@@H](C(=O)N2CC[C@@]3(S(=O)(=O)c4ccc(F)cc4)c4ccc(C(F)(C(F)(F)F)C(F)(F)F)cc4CC[C@@H]23)CC1`, the IC50 in series [3] is greater than 40 µM; in series [4], greater than 10 µM; in [5], greater than 10 µM; in series [7], greater than 10 µM; in series [8] it was greater than 10 µM.
For `O=C(O)[C@H]1CC[C@H](C(=O)N2CC[C@@]3(S(=O)(=O)c4cccc(F)c4)c4ccc(C(F)(C(F)(F)F)C(F)(F)F)cc4CC[C@@H]23)CC1`, the values for the half-life in series [1], in series [2] and in series [6] were greater than 120 min, 110 min and 99 min, respectively. In addition, the IC50 in series [3] is greater than 40 µM; in [4], greater than 10 µM; in [5], greater than 10 µM; in [7], greater than 10 µM; in series [8], greater than 10 µM.
On to `O=C(C1CCS(=O)(=O)CC1)N1CC[C@@]2(S(=O)(=O)c3ccc(F)cc3)c3ccc(C(F)(C(F)(F)F)C(F)(F)F)cc3CC[C@@H]12`, for which the half-life is 66 min in series [1], greater than 120 min in series [2] and greater than 120 min in series [6]. Also, the IC50 in series [3] was greater than 40 µM; in [4], greater than 10 µM; in series [5], greater than 10 µM; in [7], greater than 10 µM; in series [8], greater than 10 µM.
As for `O=C(O)C12CC(C(=O)N3CC[C@@]4(S(=O)(=O)c5ccc(F)cc5)c5ccc(C(F)(C(F)(F)F)C(F)(F)F)cc5CC[C@@H]34)(C1)C2`, the IC50 was greater than 40 µM in [3]; greater than 10 µM in [4]; greater than 10 µM in series [5]; greater than 10 µM in [7]; greater than 10 µM in series [8].
As to `CC(=O)N1CCC(C(=O)N2CC[C@@]3(S(=O)(=O)c4ccc(F)cc4)c4ccc(C(F)(C(F)(F)F)C(F)(F)F)cc4CC[C@@H]23)CC1`, the half-life in series [1] came out at 49 min; in series [2], 21 min; in [6], 51 min. The half-maximal inhibitory concentration (IC50) in series [3] was greater than 40 µM; in series [4] it was greater than 10 µM; in [5] it was greater than 10 µM; in [7] it was greater than 10 µM; in series [8] it was greater than 10 µM.
With `O=C(O)[C@H]1CC[C@H](C(=O)N2CC[C@@]3(S(=O)(=O)Cc4ccccc4)c4ccc(C(F)(C(F)(F)F)C(F)(F)F)cc4CC[C@@H]23)CC1`, the IC50 in [3] was greater than 40 µM; in [4], greater than 10 µM; in [5] it was greater than 10 µM; in series [7], greater than 10 µM; in series [8], greater than 10 µM.
With `O=C(N1CC[C@@]2(S(=O)(=O)c3ccc(F)cc3)c3ccc(C(F)(C(F)(F)F)C(F)(F)F)cc3OC[C@@H]12)C1(O)CCS(=O)(=O)CC1`, the half-life is 95 min in series [1], greater than 120 min in series [2] and greater than 120 min in [6]. Moreover, the IC50 was greater than 40 µM in series [3]; greater than 10 µM in series [4]; greater than 10 µM in series [5]; greater than 10 µM in series [7]; greater than 10 µM in [8].

Usually half-life stands for how long it takes for the measured level to halve. In general, IC50 refers to the concentration needed to halve the response being measured. The low end stands for inhibition by little substance, the high end for a need for much substance. A word on the fraction unbound: it is the share of the substance not bound to proteins or other matrix. Low values mean little free substance, high ones much free substance.
